Experimental data as given in patent publication US20200140560A1, “PROTEASE BASED SWITCH CHIMERIC ANTIGEN RECEPTORS FOR SAFER CELL IMMUNOTHERAPY” (CELLECTIS, priority 2017, published 2020).
“Also recorded” adds a separate entry of the source.

How the values were obtained:
[1] = system: anti-CD22 CAR T-cells co-cultured with Raji target cells; assay: Cytokine profiling of anti-CD22 CAR T-cells co-cultured with Raji target cells in presence of Asunaprevir; assay type: cell-based, human; conditions: various concentrations of ASN, 24 hours co-culture with Raji; FIG. 10
Method: FIG. 10: Cytokine quantification after co-culture of anti-CD22 CAR T-cells with target cells as a function of Asunaprevir concentration (see example 6). Data are shown as the mean±SD of duplicates per points.
T-cells were co-cultured with Raji target cells in 12-well culture plates in the presence of various concentrations of ASN for 24 hours. Cells were spun down, and the supernatants were aliquoted and frozen. Cytokine levels in the supernatants were measured with LEGEND plex Human Th Cytokine panel (Biolegend).

[2] = system: CD22 positive Raji cells killed by anti-CD22 degron CAR T-cells; assay: Cytolytic properties of anti-CD22 degron CAR T-cells after wash-out of Asunaprevir; conditions: 500 nM Asunaprevir, wash-out 48 h, 24 h or 0 h prior to cytotoxicity assay; Raji 3:1; FIGS. 8A and 8B
Method: A fraction of the cells is maintained under 500 nM of Asunaprevir (correspond to the no wash-out point).
After 24 h the cells are pelleted, the supernatant is collected for luciferase quantification.

[3] = system: degron CARs (anti-CD123, anti-CD22) with NS3 protease domain in primary human T-cells; assay: Surface expression of C-terminal fusion degron CARs in primary human T-cells (flow cytometry, labeled recombinant CD22 or CD123); assay type: cell-based; conditions: 500 nM Asunaprevir for 48 h, FIG. 6
From the text: FIG. 6: Experimental results obtained with T-cells endowed with the CARs of the present invention. 6A: Percentage of CAR positive T-cells (presentation of anti-CD123 CARs at the surface of the transduced cells) in presence or absence of the protease inhibitor Asunaprevir. 6B: Percentage of CAR positive T-cells (presentation of anti-CD22 CARs at the surface of the transduced cells) in presence or absence of the protease inhibitor Asunaprevir). Controls are T-cells endowed with CARs lacking controlled degradation moiety (high presentation of CARs at the surface of the transduced cells). The percentage of CAR positive cells is measured by flow cytometry. Experimental details are provided in example 2.
3-5 days post transduction T-cells were incubated with or without 500 nM Asunaprevir for 48 h. The proportion of T-cells expressing the CAR at their surface was then quantified using labeled recombinant protein CD22 or CD123 targeted by the CAR (LakePharma).

[4] = system: T-cells; assay: T-cell proliferation in presence of Asunaprevir; assay type: cell-based, human; conditions: 100 nM to 1 μM ASN; FIG. 9
Method: FIG. 9: Proliferation of T-cells in the presence of increasing concentrations of Asunaprevir (see example 5). The total number of cells at different days cultured in presence of 100 nM, 500 nM or 1000 nM relative to 0 nM ASN is presented. Data are shown as the median of PBMC from 2 donors done in duplicate.
T-cells were cultured in X-Vivo 15 (Lonza) supplemented with 5% human serum hAB (Gemini) and 20 ng/ml IL-2 (Miltenyi) at a density of 1×10^6 cells/ml in presence of various dose (0-1000 nM) of the Asunaprevir protease inhibitor.

[5] = system: Raji target cells killed by SWOFF anti-CD22 CAR T-cells (TRAC locus integration); assay: Cytotoxicity of T-cells with SWOFF anti-CD22 CAR integrated at the TRAC locus against luciferase-expressing Raji cells, Asunaprevir dose response; assay type: cell-based, human
From the text: Data are shown as median with 95% confidence intervals of triplicates per points. N=2, performed in triplicates.
T-cells were then passaged the day prior to the transfection/transduction at 1×10^6 cells/ml in complete media. On the day of transfection/transduction, the cells were de-beaded by magnetic separation (EasySep), washed twice in Cytoporation buffer T (BTX Harvard Apparatus, Holliston, Mass.), and resuspended at a final concentration of 28×10^6 cells/ml in the same solution.
The electroporated cells were then immediately transferred to a 12-well plate containing 1 ml of prewarmed X-vivo-15 serum-free media and incubated for 37° C. for 15 min. The cells were then plated at a concentration of 10,000 cells/well with AAV in a 20 μl total volume of serum-free media (MOI: 1×10^5 vg/cells) in 96-well round bottom plates. […] 100 pL of fresh complete media was then added. Six days after transduction, 0.5×10^6 cells were seeded in a G-Rex 24-well plate (Wilson Wolf) in 5 ml of complete X-vivo-15 media and cultivated for 11 days.
After 24 h, the cells are collected and mixed, and 100 ul of cells was used for luciferase quantification (OneGlo, Promega). The remainder of the cells were pelleted and resuspended in fresh X-vivo 15 media with 5% hAB serum, no 11-2 (supplemented with or without 1-500 nM Asunaprevir), and an additional 0.5×10^6 target cells were added.

[6] = system: CD22 positive target cells (Raji) killed by degron CAR T-cells; assay: Cytolytic properties of C-terminal fusion degron CAR T-cells against luciferase-expressing Raji cells with Asunaprevir; conditions: 500 nM Asunaprevir; T-cells:Raji 3:1; 3 consecutive days; FIG. 7
Method: Data are normalized using untransduced human primary T-cells.
After 24 h the cells were pelleted, the supernatant was collected for luciferase quantification and the pelleted cells were resuspended in fresh complete X-vivo (supplemented or not with 500 nM Asunaprevir) media and 0.5×10^6 target cells (CD22 positive cells) were added.

C=C[C@@H]1C[C@]1(NC(=O)[C@@H]1C[C@@H](Oc2ncc(OC)c3ccc(Cl)cc23)CN1C(=O)[C@@H](NC(=O)OC(C)(C)C)C(C)(C)C)C(=O)NS(=O)(=O)C1CC1 [Asunaprevir, asunaprevir]
cytokine production [1]: did not result in notable variations
CAR cytolytic properties after wash-out of Asunaprevir [2]: controlled by Asunaprevir in a reversible manner
CAR presentation at the surface, control CARs lacking the self-excising degron ([3]; control CARs): did not react
CAR presentation at the surface of the transduced T-cells population ([3]; degron CARs anti-CD123 / anti-CD22): could be controlled by Asunaprevir
proliferation of the T-cells [4]: no effects
viability of the T-cells [4]: no effects
CAR T-cells cytolytic properties (luciferase signal of target cells) ([5]; 1 to 500 nM Asunaprevir, T-cells:Raji 3:1, FIG. 14): controlled by addition of Asunaprevir
IC50 ([5]; Homo sapiens, Raji, read-out: IC50 of control of CAR T-cells cytolytic properties): ~15 nM
CAR cytolytic properties (percentage of CD22 positive target cells killed) [6]: could be negatively controlled; also recorded: reduced
